Test results reported in PubChem BioAssay (NCI).
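Assay format: 96-well plates, 48-hour exposure. GI50 is the concentration that inhibits growth by half. TGI: concentration producing complete growth inhibition.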

What was measured:
Assay in all cases: growth of human tumour cells (NCI), 48 h
[1] = tested on: OVCAR-8 ovarian
[2] = tested on: UO-31 renal
[3] = tested on: KM12 colon
[4] = tested on: NCI-H23 lung
[5] = tested on: M14 melanoma
[6] = tested on: UACC-257 melanoma
[7] = tested on: NCI/ADR-RES ovarian
[8] = tested on: MDA-MB-231 breast
[9] = tested on: T-47D breast
[10] = tested on: CAKI-1 renal

| Structure (SMILES) | TGI [1] [µM] | TGI [2] [µM] | TGI [3] [µM] | TGI [4] [µM] | TGI [5] [µM] | TGI [6] [µM] | GI50 [1] [µM] | GI50 [7] [µM] | TGI [7] [µM] | GI50 [8] [µM] | TGI [8] [µM] | GI50 [2] [µM] | GI50 [3] [µM] | GI50 [4] [µM] | GI50 [9] [µM] | TGI [9] [µM] | GI50 [5] [µM] | GI50 [6] [µM] | GI50 [10] [µM] | TGI [10] [µM] |
| --- | --- | --- | --- | --- | --- | --- | --- | --- | --- | --- | --- | --- | --- | --- | --- | --- | --- | --- | --- | --- |
| Cc1cccc2c(O)cc(=O)oc12 | > 100 | > 100 | > 100 | > 100 | > 100 | > 100 |  |  |  |  |  |  |  |  |  |  |  |  |  |  |
| CCSc1ccc(C2C(Br)C(=O)N2c2cc(OC)c(OC)c(OC)c2)cc1 (stereo unspecified) | 51.8 | 15.5 | > 100 | 73.4 | 2.12 | > 100 | 0.403 | 0.125 | > 100 | 0.488 | 95.3 | 0.342 | 0.202 | 0.478 | 16.9 | 35.7 | 0.128 | 14.3 |  |  |
| CCC[CH2][Sn]1([CH2]CCC)[O]CC(C)[O]1 (stereo unspecified) | 3.47 | 3.1 | 6.23 | 2.08 | 4.87 | 2.56 | 1.59 |  |  |  |  | 1.54 | 2.1 | 0.749 |  |  | 1.87 | 1.07 | 0.24 | 1.23 |
| CC(=O)[CH-]C(C)=O.CC(=O)[CH-]C(C)=O.CC[O-].CC[O-].[Ti+4] | > 100 | > 100 | > 100 |  | > 100 | > 100 | > 100 |  |  |  |  | > 100 | > 100 |  |  |  | > 100 | > 100 | > 100 | > 100 |
| CN(C)CC/C(=N\Nc1ccc(Cl)cc1Cl)c1ccccc1 | 34.9 | 10.5 | 31.2 | 31.6 | 29.1 | 30.1 |  |  |  |  |  |  |  |  |  |  |  |  |  |  |
| C/C=N\N1C(=O)c2ccccc2C1=O | > 100 | > 100 | > 100 | > 100 | > 100 | > 100 |  |  |  |  |  |  |  |  |  |  |  |  |  | > 100 |
| C[C@]12CCC(=O)C=C1CC[C@@H]1C2CC[C@]2(C)c3nn(-c4ccccc4)nc3CC12 (stereo partly specified) | > 100 | > 100 | > 100 | > 100 | > 100 | > 100 |  |  |  |  |  |  |  |  |  |  |  |  |  |  |
| CS(=O)(=O)N(c1cc(-c2ccc3ncnc(Nc4cccc(Cl)c4)c3c2)cnc1Cl)S(C)(=O)=O | > 100 | 2.52 | 4.72 | 3.72 | 4.4 |  | 1.58 | 1.5 | 12.4 | 0.925 | 6.21 | 0.232 | 1.21 | 0.417 | 0.043 | 0.618 | 0.598 |  | 0.281 | 2.08 |
| CC1(C)CC(N(C(=O)/C=C/c2ccc([N+](=O)[O-])o2)C2CCCCC2)CC(C)(C)N1 | 17.8 | 24.5 | 22.5 | 21.3 | 9.54 | 23.1 |  |  |  |  |  |  |  |  |  |  |  |  |  | 17.2 |
| CCN(CC)CCNC(=O)c1cccc2nc3ccccc3nc12 | > 100 | > 71.7 | 45.8 | 31.8 | > 48.7 | 27.7 |  |  |  |  |  |  |  |  |  |  |  |  |  | > 100 |
| CN1C/C(=C\C=C\c2ccccc2)C(=O)/C(=C/C=C/c2ccccc2)C1 | > 100 | > 100 | > 100 | > 100 | > 100 | > 100 |  |  |  |  |  |  |  |  |  |  |  |  |  | > 100 |
| O=C1/C(=C/c2ccc(Br)cc2)CCC/C1=C\c1ccc(Br)cc1 | 22 | 24.7 | 10.9 | 21.2 | 11.5 | 16.2 |  |  |  |  |  |  |  |  |  |  |  |  |  | > 100 |
| O=[N+]([O-])c1ccc(C=NC23CC4CC(CC(C4)C2)C3)cc1 | > 100 | > 100 | > 100 | > 100 | > 100 | > 100 |  |  |  |  |  |  |  |  |  |  |  |  |  | > 100 |
| NNC(=O)C(=O)N/N=C(\CCC(=O)Nc1ccc(Cl)cc1)Cc1nc2ccccc2s1 | > 100 | > 100 | > 100 | > 100 | 66.5 | > 100 |  |  |  |  |  |  |  |  |  |  |  |  |  | > 100 |
| CCN(CC)c1ccc(/C=C/C=C2\NC(=O)NC2=O)cc1 | 66.6 | > 100 | 21.3 | > 100 | > 100 |  | 6.21 | 1.12 | 28.5 | 10.5 | > 100 | 7.97 | 1.85 | 11.2 | 4 | > 100 | 1.56 |  | 2.65 | > 100 |
| O=C(CCCCC(=O)N/N=C\c1ccccc1O)N/N=C\c1ccccc1O | > 100 |  |  |  | > 100 |  | 2.6 |  |  | 1.9 | 57.5 |  |  |  |  |  | 3.39 |  |  |  |
| CN(C)C(=O)Oc1c(-c2ccccc2)c(=O)n2c3ccccc3n3c(=O)n(C)c(=O)c1c23 | > 100 | > 100 |  | > 100 | > 100 | > 100 |  |  |  |  |  |  |  |  |  |  |  |  |  | > 100 |
| O=C(CCC(=O)C1CCC/C1=N/O)Nc1ccc(Cl)cc1 (stereo unspecified) | > 100 | > 100 | > 100 | > 100 | > 100 | > 100 |  |  |  |  |  |  |  |  |  |  |  |  |  | > 100 |
| COc1ccc2ccc3oc([N+](=O)[O-])cc3c2c1 | 3.27 |  | 2.09 | 0.572 | 0.307 |  | 0.216 | 0.251 | 2.22 | 0.208 | 0.723 |  | 0.417 | 0.198 | 1.83 | > 100 | 0.115 |  | 0.186 | 0.514 |
| Cc1cc(Nc2cc(N)ncn2)c(=O)n2c1C(=O)NC21CCCCC1 | > 100 | > 100 | > 100 | > 100 | > 100 | > 100 | > 100 | > 100 | > 100 | 82 | > 100 | 51.8 | > 100 | > 100 | > 100 | > 100 | > 100 | > 100 |  |  |
| O=C1c2ccccc2C(=O)c2[nH]c(Cc3ccc(F)cc3)nc21 | 35.3 | 59.5 | 32.9 |  | 30.2 | 30.4 |  |  |  |  |  |  |  |  |  |  |  |  |  | 50.2 |
